Target: T1, EgtB (Mycolicibacterium smegmatis, UniProt A0R5N0)
T1 sequence (A0R5N0 1-428): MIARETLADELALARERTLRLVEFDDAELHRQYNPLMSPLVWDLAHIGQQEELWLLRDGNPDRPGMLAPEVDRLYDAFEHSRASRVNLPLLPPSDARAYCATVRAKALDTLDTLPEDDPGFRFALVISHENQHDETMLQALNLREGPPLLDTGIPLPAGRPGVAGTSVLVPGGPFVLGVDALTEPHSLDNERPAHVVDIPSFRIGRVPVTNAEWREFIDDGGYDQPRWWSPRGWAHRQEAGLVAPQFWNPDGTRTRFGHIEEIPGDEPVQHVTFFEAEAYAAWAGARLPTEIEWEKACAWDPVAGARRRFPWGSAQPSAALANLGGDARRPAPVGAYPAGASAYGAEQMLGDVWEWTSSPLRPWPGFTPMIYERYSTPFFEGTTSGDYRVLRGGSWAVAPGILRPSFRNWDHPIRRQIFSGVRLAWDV
Experiment: 1H-NMR assay of product […]
Assay type: biochemical
Conditions: co-substrate γ-Glu-Cys

C[N+](C)(C)[C@@H](Cc1cnc[nH]1)C(=O)[O-] [compound 2, hercynine]
1H-NMR assay of product 3: Native EgtB reaction in ergothioneine biosynthesis

— paper PMC4166525 (Organic letters, 2013)
